Read-outs that look alike come from different tables or passages of the source.
Legend:
[1] = tested on: corneal neovascularization; experiment: Off-label topical AVASTIN for corneal neovascularization using the scleral lens drug delivery system; format: in vivo
Description: This study using AVASTIN® off-label, topically, to treat corneal neovascularization was repeated using the scleral lens drug delivery system. […] This therapeutic effect was achieved without BAK. Instead, the expanded pre-corneal tear film of the scleral lens drug delivery system provided adequate bioavailability of the drug without exposing the cornea to BAK.

[2] = tested on: corneal neovascularization; conditions: solution of 1% AVASTIN and 0.01% BAK, one drop, four times per day for at least thirty days, topical drops; cited from earlier work

bevacizumab [AVASTIN®]
therapeutic effect on corneal neovascularization ([1]; one drop of 1% AVASTIN added to expanded pre-corneal tear film of artificial tears in scleral lens twice per day, without BAK, by thirty days, continued benefit over subsequent sixty days): achieved a therapeutic effect by thirty days with continued benefit over the subsequent sixty days
regression of corneal neovascularization (clinical photos, FIG. 5) ([1]; scleral lens drug delivery system): regression of corneal neovascularization
therapeutic effect on corneal neovascularization [2]: Therapeutic effect was reported

Reference: patent publication US20080286338A1, “Drug delivery system with scleral lens” (Boston Foundation for Sight, priority 2007, published 2008)
